Values of other authors, collected in US10292953B2 (priority 2013, dated 2019).
Read-outs that look alike come from different tables or passages of the source.

Assays:
[1] = tested on: porcine cornea; details: solution, in vitro
[2] = tested on: corneal pain; details: dogs, aqueous solution of 1%, topical ocular
[3] = tested on: corneal pain; details: cats, aqueous solution of 1%, topical ocular
[4] = tested on: ulceration of the cornea; details: 1% topical solution, rabbits with ulceration of the cornea

CC(C)Cc1ccc(C(C)C(=O)O)cc1.N=C(N)NCCC[C@H](N)C(=O)O (centres unmarked)
effect on integrity of the cornea [1]: adversely affected the integrity of the cornea

CC(C)Cc1ccc(C(C)C(=O)O)cc1.NCCCC[C@H](N)C(=O)O (centres unmarked)
effect on integrity of the cornea [1]: adversely affected the integrity of the cornea

CN1CC[C@]23c4c5ccc(O)c4O[C@H]2[C@@H](O)C=C[C@H]3[C@H]1C5 [morphine]
analgesic effects in treatment of corneal pain [2]: did not demonstrate analgesic effects | analgesic effects in treatment of corneal pain [3]: did not demonstrate analgesic effects

Oc1ccc2c3c1O[C@H]1[C@@H](O)CC[C@@]4(O)[C@@H](C2)N(CC2CCC2)CC[C@]314 [nalbuphine]
analgesic efficacy [4]: Neither did the opioid semi-synthetic nalbuphine applied in the form of 1% topical solution demonstrate analgesic efficacy
